# In publication PMC5055185, “Dual pharmacological inhibition of glutathione and thioredoxin systems synergizes to kill colorectal carcinoma stem cells” (Cancer Medicine, 2016):
# “And” between values parts separate entries of the source, which are not always exact repeats. Identical values can stand only once. “Also recorded” adds a separate entry of the source.
# Columns and labels:
# Assay type in all cases: cell-based, human
# [1] = tested on: TIG‐111 dermal fibroblasts; assay: cell survival (trypan blue exclusion, 5 days), TIG-111; settings: for IC50: TIG111, cellular survival, 5 days; for Ratio of survived cells (Drugs treated/Untreated), Average / Ratio of survived cells (Drugs treated/Untreated), single passage points #: TIG-111
# Experimental: (§1) Modified procedures of CTOS culture 16 were described elsewhere 10. […] The culture medium was serum‐free advanced DMEM/F‐12 (GIBCO, Waltham, MA) supplemented with FGF‐2 (10 ng/mL, ReproCell, Yokohama, Japan), penicillin ([…], Wako, Osaka, Japan), streptomycin (0.1 mg/mL,Wako), gentamicin (50 μg/mL, Wako), and fungizone (0.25 μg/mL, GIBCO). DLD‐1 and HCT116 CRC cell lines were purchased from JCRB Cell Bank (Osaka, Japan) and RIKEN BioResource Center (Ibaraki, Japan), respectively. In order to estimate pharmacological side effects against normal tissues, human diploid fibroblasts were purchased (JCRB Cell Bank) as model cells. The origins of the fibroblasts were as follows: OUMS‐36 (embryo), TIG‐3 (fetal lung), TIG‐111 (dermal fibroblasts [DFs] from individual), TIG‐119 (DFs from individual), and TIG‐102 (DFs from individual). Adult DFs were purchased from Kurabo (Osaka, Japan). CRC cell lines and fibroblasts were maintained under supplier‐recommended culture conditions. Since the culture conditions are different between fibroblasts and CTOSs, we need to be cautious about the interpretation of data (i.e., lateral comparison between them). […] Colorectal CTOSs display augmented survival through maintaining epithelial structure with E‐cadherin 16. On the other hand, the establishment of conventional cell lines (adherent culture) are much less efficient because constant cell division and autonomous survival are required for the procedure. When we choose CTOSs instead of cancer cell lines, we lose the equivalent condition (adherent culture) as a trade‐off.
# (§2) Each drug's half‐maximal inhibitory concentration (IC50) was calculated based on live cell number ratios (drug treated/untreated × 100%) obtained from serial dilution of drug concentration. The length of drug exposure was 5 days. Each number of live cells was counted automatically by trypan blue exclusion (LUNA automated cell counter, Logos Biosystems, Anyang, South Korea). Cancer spheroids were dispersed with serial treatments (20 min each) of TrypLE™ and Accumax™. Thus, IC50 was determined based on cellular survival, but not on proliferation. We chose the survival index instead of the speed of growth because CTOSs in vitro show very slow proliferation (quiescence), which is one of the hallmarks of CSCs 2. The IC50 values of fibroblasts were accordingly determined based on cellular survival index during quiescence (by contact inhibition). […] To quantify the synergism of two distinct drugs, Combination Index (CI) was calculated 21. A CI value of about 1 (0.90–1.10) was defined as nearly additive and CI values more than (>1.10) and less than (<0.90) were defined as antagonism and synergism, respectively. IC50 and CI were determined using CompuSyn software (ComboSyn, Paramus, NK).
# [2] = tested on: OUMS‐36 embryonic fibroblasts; assay: cell survival (live cell count by trypan blue exclusion, 5 days drug exposure), OUMS-36; settings: for IC50: OUMS36, cellular survival, 5 days
# Experimental: as §1, §2
# DLD‐1 CRC cell line = assay: intracellular ROS, CellROX Deep Red flow cytometry, DLD-1; settings: treated 1 h (menadione 100 μmol/L, 30 min)
# Experimental: In order to estimate the effect of each inhibitor described above, intracellular reactive oxygen species (ROS) were measured using CellROX™ Deep Red reagent (Molecular Probes). Briefly, cells were seeded on 6‐well plates at 1 × 10^6 cells per well. After cells reached 90% confluence, cells were treated with designated reagents for 1 h. CellROX™ Deep Red reagent was added at a final concentration of 5 μmol/L to the culture medium and then incubated for 30 min at 37°C. Subsequently, the medium was removed and the cells were washed with PBS and detached using 0.25% trypsin‐EDTA. The resulting fluorescence was measured using a FACS Calibur flow cytometer (Becton Dickinson, Franklin Lakes, NJ). Menadione (100 μmol/L) was added 30 min before CellROX™ Deep Red reagent treatment as a reference ROS inducer. […] CD44v9 positivity of CTOS cells was analyzed as follows: Cancer spheroids were dispersed with serial treatments of TrypLE™ (20 min, GIBCO) and Accumax™ (10 min, Innovative Cell Technologies, San Diego, CA). Cell surface CD44v9 was stained with CD44v9 antibody (Cosmobio) as well as PE‐conjugated anti‐rat IgG2a (Becton Dickinson). The fluorescence was measured using a FACS Calibur flow cytometer (Becton Dickinson). […]
# One hour after each drug treatment, cells were stained with CellROX DeepRed and intracellular ROS were quantified with FACS. […]
# [3] = tested on: CTOS86 colorectal cancer tissue‐originated spheroids; assay: cell survival (trypan blue exclusion, 5 days), CTOS86; settings: for IC50: CTOS86, cellular survival, 5 days; for Ratio of survived cells (Drugs treated/Untreated), Average / Ratio of survived cells (Drugs treated/Untreated), single passage points #: CTOS#86
# Text: All experimental procedures were approved by the animal facility at Dokkyo Medical University (ID: 951) and were described elsewhere 10. The existence of CSCs has been experimentally proven through serial xenotransplantation and tumorigenesis 2, 14. […] These subcutaneous tumors were again subjected to enzymatic dissociation and some of the tumor cells were subcutaneously transplanted into other mice. […] Seven cases (CTOS:40, 42, 68, 71, 76, 86, 88) were used for in vitro experiments.
# as §1
# Each drug's half‐maximal inhibitory concentration (IC50) was calculated based on live cell number ratios (drug treated/untreated × 100%) obtained from serial dilution of drug concentration. The length of drug exposure was 5 days. Each number of live cells was counted automatically by trypan blue exclusion (LUNA automated cell counter, Logos Biosystems, Anyang, South Korea). Cancer spheroids were dispersed with serial treatments (20 min each) of TrypLE™ and Accumax™. Thus, IC50 was determined based on cellular survival, but not on proliferation.
# [4] = tested on: TIG‐3 embryonic fibroblasts; assay: intracellular ROS, CellROX Deep Red flow cytometry, TIG-3; settings: treated 1 h (menadione 100 μmol/L, 30 min)
# Experimental: (§3) In order to estimate the effect of each inhibitor described above, intracellular reactive oxygen species (ROS) were measured using CellROX™ Deep Red reagent (Molecular Probes). Briefly, cells were seeded on 6‐well plates at 1 × 10^6 cells per well. After cells reached 90% confluence, cells were treated with designated reagents for 1 h. CellROX™ Deep Red reagent was added at a final concentration of 5 μmol/L to the culture medium and then incubated for 30 min at 37°C. Subsequently, the medium was removed and the cells were washed with PBS and detached using 0.25% trypsin‐EDTA. The resulting fluorescence was measured using a FACS Calibur flow cytometer (Becton Dickinson, Franklin Lakes, NJ). Menadione (100 μmol/L) was added 30 min before CellROX™ Deep Red reagent treatment as a reference ROS inducer. […] CD44v9 positivity of CTOS cells was analyzed as follows: Cancer spheroids were dispersed with serial treatments of TrypLE™ (20 min, GIBCO) and Accumax™ (10 min, Innovative Cell Technologies, San Diego, CA). Cell surface CD44v9 was stained with CD44v9 antibody (Cosmobio) as well as PE‐conjugated anti‐rat IgG2a (Becton Dickinson). The fluorescence was measured using a FACS Calibur flow cytometer (Becton Dickinson). Since CTOSs contained abundant auto‐fluorescent cells, we defined FL2^+FL1^− cells as authentic PE‐positive (Fig. S4). Thus, CD44v9‐positive rate was defined as FL2^+FL1^−/total live cells and CD44v9‐positive fraction was further gated and split between CD44v9^low and CD44v9^high (Fig. S4), to calculate the mean fluorescent intensity of CD44v9^high fraction.
# (§4) One hour after each drug treatment, cells were stained with CellROX DeepRed and intracellular ROS were quantified with FACS. Upper: histogram of fluorescent signal is represented. Lower. representative mean fluorescent intensity scores are shown. Note that without drug treatment (Control), intracellular ROS is higher in OUMS36 and TIG3 (embryonic fibroblasts) but lower in DLD-1 and HCT116 (CRC cell lines). ROS in DLD-1 was increased by auranofin. ROS in HCT116 was increased by all the inhibitors tested. […]
# [5] = tested on: OUMS‐36 embryonic fibroblasts; assay: intracellular ROS, CellROX Deep Red flow cytometry, OUMS-36; settings: treated 1 h (menadione 100 μmol/L, 30 min)
# Experimental: as §3, §4
smiles,measurement,setting,value
"CC[PH](CC)(CC)[Au][S][C@@H]1O[C@H](COC(C)=O)[C@@H](OC(C)=O)[C@H](OC(C)=O)[C@H]1OC(C)=O [Aura, Auranofin]",IC50,[1],1.75 µM
same,"Ratio of survived cells (Drugs treated/Untreated), Average",[1]; Aura 1 microM,94.25%
same,"Ratio of survived cells (Drugs treated/Untreated), Average",[1]; Aura 2 microM,41.75%
same,"Ratio of survived cells (Drugs treated/Untreated), Average",[1]; Aura 4 microM,0%
same,"Ratio of survived cells (Drugs treated/Untreated), single passage points #",[1]; Aura 4 microM,0%
same,IC50,[2],1.79 µM
same,"Ratio of survived cells (Drugs treated/Untreated), Average","[2]; OUMS-36, Aura 1 microM",87.8571%
same,"Ratio of survived cells (Drugs treated/Untreated), single passage points #","[2]; OUMS-36, Aura 1 microM",123% and 124% and 66% and 91% and 65% and 77% and 69%
same,"Ratio of survived cells (Drugs treated/Untreated), Average","[2]; OUMS-36, Aura 2 microM",39.8571%
same,"Ratio of survived cells (Drugs treated/Untreated), Average","[2]; OUMS-36, Aura 4 microM",6%
same,intracellular ROS response,DLD‐1 CRC cell line,increased; also recorded: increase of ROS
same,IC50,[3],3.02 µM
same,"Ratio of survived cells (Drugs treated/Untreated), Average",[3]; Aura 1 microM,83.5%
same,"Ratio of survived cells (Drugs treated/Untreated), single passage points #",[3]; Aura 1 microM,75% and 92%
same,"Ratio of survived cells (Drugs treated/Untreated), Average",[3]; Aura 2 microM,64.5%
same,"Ratio of survived cells (Drugs treated/Untreated), single passage points #",[3]; Aura 2 microM,67% and 62%
"COc1cc(/C=C/C(=O)N2CCC=CC2=O)cc(OC)c1OC [Pipe, Piperlongumine]",IC50,[1],8.04 µM
same,"Ratio of survived cells (Drugs treated/Untreated), Average",[1]; Pipe 2.5 microM,110%
same,"Ratio of survived cells (Drugs treated/Untreated), single passage points #",[1]; Pipe 2.5 microM,85% and 103% and 123% and 129%
same,"Ratio of survived cells (Drugs treated/Untreated), Average",[1]; Pipe 5 microM,95%
same,"Ratio of survived cells (Drugs treated/Untreated), single passage points #",[1]; Pipe 5 microM,69% and 82% and 125% and 104%
same,"Ratio of survived cells (Drugs treated/Untreated), Average",[1]; Pipe 10 microM,19.75%
same,IC50,[2],9.36 µM
same,"Ratio of survived cells (Drugs treated/Untreated), Average","[2]; OUMS-36, Pipe 2.5 microM",107.667%
same,"Ratio of survived cells (Drugs treated/Untreated), Average","[2]; OUMS-36, Pipe 5 microM",84.6667%
same,"Ratio of survived cells (Drugs treated/Untreated), Average","[2]; OUMS-36, Pipe 10 microM",49.1667%
same,intracellular ROS response,[4],no ROS increase
same,IC50,[3],7.12 µM
same,"Ratio of survived cells (Drugs treated/Untreated), Average",[3]; Pipe 2.5 microM,79%
same,"Ratio of survived cells (Drugs treated/Untreated), single passage points #",[3]; Pipe 2.5 microM,79%
same,"Ratio of survived cells (Drugs treated/Untreated), Average",[3]; Pipe 5 microM,60%
same,"Ratio of survived cells (Drugs treated/Untreated), single passage points #",[3]; Pipe 5 microM,69% and 51%
same,"Ratio of survived cells (Drugs treated/Untreated), Average",[3]; Pipe 10 microM,39.5%
same,"Ratio of survived cells (Drugs treated/Untreated), single passage points #",[3]; Pipe 10 microM,39% and 40%
same,intracellular ROS response,[5],no ROS increase
